# Where no end group is shown, it is not given here.
# How the values were obtained:
# human CD34+ cells = format: cell-based
# 293T cells = assay: Transfection of 293T cells with pEGFP-C1 in presence of peptides; format: cell-based; conditions: peptide 24 μg/ml; 1 μg pEGFP-C1; 48 h
# Experimental: FIG. 11. Transfection of 293T cells with pEGFP in presence of LAH4-A4, LAH4-L1 or K2-L10A12-K2 peptides. pEGFP-C1 (1 μg) was mixed in 50 μl of 150 mM NaCl solution with either 3 μg, 4.5 μg, 6 μg or 9 μg of LAH4-A4 or 6 μg of LAH4-L1 or 6 μg of K2-L10A12-K2. Next, the DNA/peptide mix was diluted in 200 μl of DMEM without FCS and loaded onto cell monolayers. 3 hours post-transfection, the medium was replaced with DMEM containing 10% FCS. 48 h later, transfection efficiencies were estimated by monitoring GFP expression using flow cytometry. Data are the average of two independent experiments performed in duplicate with SD.
# 293T cells (1.5×10E5/well) were plated in 48-well plates the day before transfection. For transfection, 1 μg of pEGFP-C1 was mixed with the desired amount of peptide in 50 μl of 150 mM NaCl solution, vortexed and incubated 15 min at room temperature. Next, the DNA/peptide mix was diluted in 200 μl of DMEM without FCS and loaded onto cell monolayers. 3 hours post-transfection, the medium was replaced with DMEM containing 10% FCS. 48 h later, transfection efficiency was estimated by monitoring GFP expression using flow cytometry.
# hCD34+ cells = conditions: for Cytotoxic effect of the peptides: hCD34+ cells transduced with RD114TR-LV or GALVTR-MLV, peptide 12 μg/ml
# [1] = test system: human hematopoietic cells engraftment; conditions: hCD34+ cells transduced in presence of 12 μg/ml LAH4-L1
# lentiviral vectors = conditions: Wurm et al., 2010; cited from earlier work
substance,measurement,setting,value
KKALLAAALAALLALAAALLALLKKA (K2-L10A12-K2),Transduction efficiency compared with LAH4-A4 (in words),human CD34+ cells,still able to promote some lentiviral transduction
same,hCD34+ transduction level compared to LAH4-A4,human CD34+ cells,17%
same,Transfection of 293T cells with GFP plasmid,293T cells,unable to promote cell transfection
LAH4-L4: L series peptide with hydrophilic angle of 140°; b61: LAH4-L4 peptide of SEQ ID NO:36; possibly LAH4-L4iso is meant (KKALLALALHHLALLAHLLALHLKKA; LAH4-L4) [L series peptide with hydrophilic angle of 140°; possibly LAH4-L4iso is meant],"Capacity to promote transduction of hCD34+ cells with GALVTR-LVs, ranking within L and A series of isomers",human CD34+ cells,most efficient
KKALLAHALHLLALLALHLAHALA (LAH4-L1-dKC),Transduction efficiency compared with LAH4-L1 (in words),human CD34+ cells,as efficiently as LAH4-L1
KKALLHAALAHLLALAHHLLALLKKA-NH2 [LAH4-A4],"Cytotoxicity (mortality, 7-AAD)",hCD34+ cells,no apparent cytotoxicity
same,"Cytotoxicity (mortality, 7-AAD) in dose-response experiment",hCD34+ cells,no apparent cytotoxicity
same,Cytotoxic effect of the peptides,hCD34+ cells,did not observe any cytotoxic effect
KKALLAHALHLLALLALHLAHALKKA-NH2 [LAH4-L1],"Cytotoxic effect (mortality, 7-AAD)",hCD34+ cells,did not observe any cytotoxic effect
same,Cytotoxic effect of the peptides,hCD34+ cells,did not observe any cytotoxic effect
same,Cytotoxic or deleterious effect on human immune system reconstitution,[1],did not observed any cytotoxic or deleterious effect
KKALLHLALLHAALLAHHLALALKKA-NH2 [LAH4-L4ISO],Cytotoxic effect of the peptides,hCD34+ cells,did not observe any cytotoxic effect
HHALLAHALHLLALLALHLAHALHHA (LAH8-L1),Transduction efficiency compared with LAH4-L1 (in words),human CD34+ cells,detrimental
KKALLHAALAHLLALAHHLLALLKK (LAH4-A4-d1aa),Transduction efficiency compared with LAH4-A4 (in words),human CD34+ cells,slightly decreases the efficiency
KKLLHAALAHLLALAHHLLALLKK (LAH4-A4-d2aa),hCD34+ transduction level compared to LAH4-A4,human CD34+ cells,30%
RRALLAHALHLLALLALHLAHALRRA-NH2 [LAH4-L1-R],"Cytotoxicity (mortality, 7-AAD)",hCD34+ cells,no apparent cytotoxicity
KALLHAALAHLLALAHHLLALLKKA (LAH4-A4-K1N),hCD34+ transduction level compared to LAH4-A4,human CD34+ cells,60%
ALLHAALAHLLALAHHLLALLKKA-NH2 [LAH4-A4-dKN],"Cytotoxicity (mortality, 7-AAD)",hCD34+ cells,not the consequence of a strong cytotoxic effect
KKALLHAALAHLLPLAHHLLALLKKA (LAH4-A4-P14),Lentiviral transduction abolished relative to LAH4-A4,human CD34+ cells,80%
KKLLLHALLAHLLALLHHLLALLKKL (LAH4-A4-Leu),Transduction efficiency compared with LAH4-A4 (in words),human CD34+ cells,two times less potent than LAH4-A4
"GIHKQKEKSRLQGGVLVNEILNHMKRATQIPSYKKLIMY (SEVI) [human Semen Enhancer of Viral Infection, fragment of the human prostatic acid phosphatase; not amidated]",Ability to promote the transduction of lentiviral vectors,lentiviral vectors,able to promote the transduction of lentiviral vectors
ALLAHALHLLALLALHLAHALKKA (LAH4-L1-dKN),Transduction efficiency compared with LAH4-L1 (in words),human CD34+ cells,not detectable
ALLAHALHLLALLALHLAHALA (LAH4-L1-dK) [LAH4-L 1-dK],Transduction efficiency compared with LAH4-L1 (in words),human CD34+ cells,not detectable
KKALLHAALAHLLALAAALLALLKKA-NH2 [LAH2-A6],"Cytotoxicity (mortality, 7-AAD)",hCD34+ cells,no apparent cytotoxicity
KKKLLHAALAHLLALAHHLLALLKKA (LAH4-A4-K3N),Transduction efficiency compared with LAH4-A4 (in words),human CD34+ cells,as efficient as LAH4-A4
KKALLHALLAHLAALLHALLAHLKKA-NH2 [LAH4-A5],Cytotoxic effect of the peptides,hCD34+ cells,did not observe any cytotoxic effect
KKALLAKALKLLALLALKLAKALKKA-NH2 [LAK4-L1],"Cytotoxicity (mortality, 7-AAD)",hCD34+ cells,not the consequence of a strong cytotoxic effect
KKALLAAALAALLALAHHLLALLKKA (LAH2-A4),Transduction efficiency compared with LAH4-A4 (in words),human CD34+ cells,not functional
